Assay results from publication PMC10507154 (iScience, 2023).

Experiments:
SquF (MaSquF) [1] = molecular target: T1, SquF (MaSquF) (Marinobacterium aestuarii, UniProt A0A1A9EZ66); assay: DNPH derivatization and LC-MS of 6-dehydroglucose; type: biochemical; conditions: 10 mM NADP^+, 100 mM glucose, 50 mM CAPSO pH 10.0, RT; reverse reaction
T1 sequence (A0A1A9EZ66 1-300): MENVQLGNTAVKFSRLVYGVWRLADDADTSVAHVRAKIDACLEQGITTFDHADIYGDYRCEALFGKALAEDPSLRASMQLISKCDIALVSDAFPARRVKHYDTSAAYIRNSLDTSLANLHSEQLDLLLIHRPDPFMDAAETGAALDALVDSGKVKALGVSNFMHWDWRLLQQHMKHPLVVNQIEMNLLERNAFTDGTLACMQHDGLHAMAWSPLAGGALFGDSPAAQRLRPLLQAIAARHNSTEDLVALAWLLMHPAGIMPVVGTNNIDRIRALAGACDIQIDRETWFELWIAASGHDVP

SquF (MaSquF) [2] = molecular target: T1, SquF (MaSquF); assay: LC-MS of glucose; type: biochemical; conditions: 0.5 mM NADPH, 6-dehydroglucose generated from SQ by SqoD, RT

SMILES | DNPH derivatization and LC-MS of 6-dehydroglucose (SquF (MaSquF) [1]) | LC-MS of glucose; NADPH consumption (SquF (MaSquF) [2])
OC[C@H]1OC(O)[C@H](O)[C@@H](O)[C@@H]1O (stereo partly drawn) [D-glucose] | SquF also catalyzed the reverse reaction, oxidation of glucose to 6-dehydoglucose | –
NC(=O)C1=CN([C@@H]2O[C@H](COP(=O)(O)OP(=O)(O)OC[C@H]3O[C@@H](n4cnc5c(N)ncnc54)[C@H](OP(=O)(O)O)[C@@H]3O)[C@@H](O)[C@H]2O)C=CC1 [NADPH] | – | Inclusion of SquF and NADPH in the assay followed by LC-MS analysis
